According to the supplement of paper PMC10702517:
± gives the standard deviation.

Columns and labels:
[1] = chemical recovery by SPE of plasma after PDMS sampling; higher = better extraction; details: pooled human plasma, extraction method: HLB SPE of plasma after PES
[2] = chemical recovery from spiked human plasma; higher = better extraction; details: pooled human plasma
[3] = chemical recovery into PDMS from spiked human plasma; higher = better extraction; details: pooled human plasma, extraction method: PES with PDMS
[4] = extraction method: PES+SPE (3 d PDMS equilibration then HLB SPE)
[5] = extraction method: SPE only (HLB 96-well)
[6] = extraction method: SPE only (HLB 96-well), PES comparison experiment
[7] = extraction method: solvent precipitation (ACN + hexane)
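Wherever chemical recovery by SPE of plasma after PDMS sampling is given: over 400 spiked chemicals quantified by LC-HRMS or GC-HRMS via internal standard calibration, recovery relative to spike mix added to unspiked plasma extract to correct matrix effects.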

Row | Structure (SMILES) | chemical recovery by SPE of plasma ([1]; equilibration time (d): 1) | chemical recovery by SPE of plasma ([1]; equilibration time (d): 3) | chemical recovery by SPE of plasma ([1]; equilibration time (d): 6) | chemical recovery [2, 5] | chemical recovery [2, 6] | chemical recovery [2, 7] | chemical recovery into PDMS ([3]; equilibration time (d): 1) | chemical recovery into PDMS ([3]; equilibration time (d): 3) | chemical recovery into PDMS ([3]; equilibration time (d): 6) | chemical recovery [2, 4]
1 | O=C(Nc1ccccc1-c1ccc(Cl)cc1)c1cccnc1Cl [Boscalid] | 4.82 ± 0.75% | 5.2 ± 0.48% | 3.13 ± 0.17% | 59.7 ± 2.4% | 48.2 ± 7.4% | 81.6 ± 1.8% | 41.6 ± 1.9% | 45.5 ± 2.2% | 44.7 ± 0.64% | 63.9 ± 10%
2 | N#Cc1cc(Br)c(O)c(Br)c1 [Bromoxynil] | 58.5 ± 9.5% | 62.9 ± 3.1% | 58.6 ± 2.6% | 43.9 ± 2.5% | 59.5 ± 6.2% | 68.2 ± 6.9% |  | 0.00783 ± 0.014% |  | 51 ± 4.9%
3 | CCCCc1c(C)nc(NCC)nc1OS(=O)(=O)N(C)C [Bupirimate] |  | 0.147 ± 0.26% |  |  | 48.9 ± 8.9% |  | 40.3 ± 1.4% | 43.9 ± 4.2% | 41.4 ± 2.6% | 
4 | COC(=O)Nc1nc2ccccc2[nH]1 [Carbendazim] | 31.6 ± 3.2% | 24.5 ± 2.5% | 10.6 ± 9.6% | 58.8 ± 4.2% | 51.3 ± 6.5% | 76.8 ± 3.4% | 16.9 ± 1.1% | 25.7 ± 2.7% | 27.6 ± 2.8% | 55.8 ± 5.5%
5 | CCOP(=O)(OCC)OC(=CCl)c1ccc(Cl)cc1Cl [Chlorfenvinphos] | 0.151 ± 0.26% |  |  |  | 49.5 ± 8.3% |  | 43.3 ± 1.2% | 44.3 ± 3.6% | 44.1 ± 0.92% | 
6 | Nc1cnn(-c2ccccc2)c(=O)c1Cl [Chloridazon] | 53.7 ± 8.1% | 57.1 ± 3.2% | 51.8 ± 4.5% | 37.3 ± 3% | 54.9 ± 6.3% | 73 ± 2.7% | 4.58 ± 0.31% | 7.42 ± 1.7% | 8.14 ± 1.6% | 44.6 ± 2.8%
7 | Oc1ccc(Cl)cc1Cc1ccccc1 [Chlorophene] | 36.9 ± 6.1% | 29.2 ± 5.9% | 28.6 ± 5.6% | 36.9 ± 4.1% | 48.5 ± 7.9% | 76.9 ± 7.2% | 13.4 ± 0.41% | 15.4 ± 0.93% | 15 ± 0.42% | 41.5 ± 3.1%
8 | Cc1ccc(NC(=O)N(C)C)cc1Cl [Chlorotoluron] | 10.3 ± 0.88% | 9.6 ± 1.2% | 5.83 ± 0.28% | 46 ± 3.5% | 50.6 ± 6.2% | 74.4 ± 2.2% | 32 ± 1.2% | 34.9 ± 1.4% | 36.3 ± 0.76% | 61.6 ± 12%
9 | Cc1cc(C2CCCCC2)n(O)c(=O)c1 [Ciclopirox] | 2.83 ± 1.3% | 0.638 ± 1.1% | 0.232 ± 0.4% |  | 46.2 ± 16% |  | 22 ± 5% | 20 ± 2.6% | 21.7 ± 2.5% | 
10 | C[C@H]1C[C@H]2[C@@H]3CCC4=CC(=O)C=C[C@]4(C)[C@@]3(F)[C@@H](O)C[C@]2(C)[C@@]1(O)C(=O)CCl [Clobetasol] |  | 53.2 ± 3.3% |  |  | 49 ± 7.5% |  | 1.52 ± 0.65% | 4.53 ± 1.1% | 4.86 ± 0.99% | 
11 | CN/C(=N\[N+](=O)[O-])NCc1cnc(Cl)s1 [Clothianidin] | 59.2 ± 6.8% | 62.2 ± 5.3% | 57 ± 2.6% | 55.1 ± 3.7% | 50.9 ± 5.5% | 75.8 ± 4.7% | 0.813 ± 0.031% | 1.39 ± 0.29% | 1.64 ± 0.42% | 54 ± 1.1%

Further lines, with some results ahead:

Row | chemical recovery by SPE of plasma ([1]; equilibration time (d): 1) | chemical recovery by SPE of plasma ([1]; equilibration time (d): 3) | chemical recovery by SPE of plasma ([1]; equilibration time (d): 6) | chemical recovery [2, 5] | chemical recovery [2, 6] | chemical recovery [2, 7] | chemical recovery into PDMS ([3]; equilibration time (d): 1) | chemical recovery into PDMS ([3]; equilibration time (d): 3) | chemical recovery into PDMS ([3]; equilibration time (d): 6) | Structure (SMILES) | chemical recovery [2, 4]
12 | 52.7 ± 6.2% | 56.9 ± 2.6% | 53.6 ± 2.6% | 45.5 ± 3.2% | 52.7 ± 4.8% | 74.9 ± 2.3% | 0.000935 ± 0.0016% | 0.00082 ± 0.0014% |  | CC(C)(Oc1ccc(CCNC(=O)c2ccc(Cl)cc2)cc1)C(=O)O [Bezafibrate] | 47.8 ± 3.6%
13 | 0.932 ± 0.2% | 0.479 ± 0.14% | 0.0513 ± 0.051% |  | 46.6 ± 10% |  | 38.6 ± 3.1% | 38.5 ± 4.5% | 35.7 ± 4.3% | c1ccc(-c2ccc(C(c3ccccc3)n3ccnc3)cc2)cc1 (configuration not stated) [Bifonazol] | 
14 | 32.2 ± 3.3% | 34.4 ± 3.7% | 31.1 ± 2.7% | 42.2 ± 4% | 47.4 ± 6.3% | 70.7 ± 1.7% | 0.0185 ± 0.032% |  |  | CC(C)NCC(O)COc1ccc(COCCOC(C)C)cc1 (configuration not stated) [Bisoprolol] | 26.7 ± 3.1%
15 | 40.6 ± 4.4% | 48.7 ± 5.1% | 42.2 ± 6.5% |  | 49.7 ± 11% | 75.4 ± 4.9% |  | 0.517 ± 0.46% | 0.935 ± 0.25% | COc1ccccc1Oc1c(NS(=O)(=O)c2ccc(C(C)(C)C)cc2)nc(-c2ncccn2)nc1OCCO [Bosentan] | 
16 | 35.3 ± 6.4% |  | 25 ± 2.6% |  | 50.5 ± 7% |  | 4.21 ± 7.3% |  | 22.6 ± 1.5% | CCCC1O[C@@H]2C[C@H]3[C@@H]4CCC5=CC(=O)C=C[C@]5(C)[C@H]4[C@@H](O)C[C@]3(C)[C@]2(C(=O)CO)O1 (some centres not stated) [Budesonide] | 
17 | 48 ± 8.7% | 50.1 ± 3% | 47.8 ± 4.2% | 42 ± 8% | 36.9 ± 3.9% | 58.8 ± 12% |  |  | 0.00245 ± 0.0094% | CCOc1nc2cccc(C(=O)O)c2n1Cc1ccc(-c2ccccc2-c2nnn[nH]2)cc1 [Candesartan] | 41.3 ± 6.7%
18 | 25.4 ± 2.9% | 21.1 ± 2.3% | 13.6 ± 1.4% | 48.5 ± 5.5% | 52.6 ± 6.1% | 72.3 ± 2.5% | 22.2 ± 1.2% | 28.4 ± 2.1% | 30.7 ± 1.8% | NC(=O)N1c2ccccc2C=Cc2ccccc21 [Carbamazepine] | 61.4 ± 6.2%
19 | 49.6 ± 7.6% | 45.6 ± 4.6% | 37.2 ± 8% | 47.2 ± 3.9% | 53.1 ± 6.2% | 69.9 ± 2.7% | 8.92 ± 0.88% | 14.1 ± 3.2% | 16.5 ± 2.4% | CCNC(=O)[C@@H](C)OC(=O)Nc1ccccc1 [Carbetamide] | 50.4 ± 4.4%
20 | 45.7 ± 5.5% | 39.7 ± 1.8% | 32.4 ± 1.7% | 33.2 ± 6.9% | 47.6 ± 5% | 42.7 ± 2.1% | 1.77 ± 0.12% | 6.98 ± 2.7% | 8.5 ± 3.5% | Cc1ccc(-c2cc(C(F)(F)F)nn2-c2ccc(S(N)(=O)=O)cc2)cc1 [Celecoxib] | 
21 | 11 ± 2.2% | 7.37 ± 0.66% | 4.53 ± 0.44% | 36.4 ± 1.9% | 49.8 ± 7.3% |  | 37.3 ± 1.7% | 43.6 ± 2.7% | 42.8 ± 0.94% | CN(C)C(=O)Nc1ccc(Oc2ccc(Cl)cc2)cc1 [Chloroxuron] | 
22 | 1.65 ± 0.14% | 1.11 ± 0.35% | 0.487 ± 0.043% | 37.7 ± 2.8% | 46.8 ± 4.8% | 75.1 ± 3.8% | 41.2 ± 2.2% | 40 ± 1% | 39.7 ± 1.4% | CC(C)(C)C(=O)C(Oc1ccc(Cl)cc1)n1ccnc1 (configuration not stated) [Climbazole] | 66.5 ± 6.8%
23 | 5.08 ± 8.8% | 7.02 ± 6.3% |  |  | 44.8 ± 8.7% |  | 28.2 ± 4.4% | 36.9 ± 2.1% | 37.2 ± 3.9% | CCC(=O)O[C@]1(C(=O)CCl)[C@@H](C)C[C@H]2[C@@H]3CCC4=CC(=O)C=C[C@]4(C)[C@@]3(F)[C@@H](O)C[C@@]21C [Clobetasol propionate] | 
24 |  | 0.676 ± 1.2% |  | 3.33 ± 1.6% | 44.4 ± 7.8% | 23 ± 10% | 40.3 ± 0.95% | 42.9 ± 4.2% | 43 ± 5.5% | CCOC(=O)C(C)(C)Oc1ccc(Cl)cc1 [Clofibrate] | 
25 | 13.4 ± 3.1% | 12.7 ± 1.8% | 12.3 ± 3.9% | 41.2 ± 3.6% | 39.6 ± 6.6% | 60.3 ± 8.8% | 7.21 ± 0.54% | 8.62 ± 0.81% | 6.38 ± 5.7% | Clc1cccc(Cl)c1NC1=NCCN1 [Clonidine] | 28.5 ± 5.5%
26 | 0.677 ± 0.17% | 1.02 ± 0.078% | 0.597 ± 0.026% |  | 39.3 ± 7.1% | 78.1 ± 6.1% | 26.7 ± 8.6% | 25.5 ± 7.8% | 28.3 ± 5.4% | COC(=O)[C@H](c1ccccc1Cl)N1CCc2sccc2C1 [Clopidogrel] | 
